Test results as given in the supplement of paper PMC11451515.

How the values were obtained:
Conditions in all cases: 48 h
P12-Ichikawa [1] = assay: AUC of viability dose-response curve (% viability x log10 dose units); higher = less sensitive
In short: (§1)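 In 1536-well plates, leukemia cells adapted to each medium (500 or 1000 cells/well) were exposed for 48 h at 37°C to library compounds in DMSO across 11 threefold doses, 47 μM down to 0.79 nM. Viability was read by CellTiter-Glo One luminescence and normalised per plate to DMSO and cell-free wells. A four-parameter log-logistic fit over log10 doses was integrated by trapezoidal rule. This yielded the area under the curve, with over-full-viability curves scaled and quality-control failures dropped.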

NOMO1 [2] = assay: as above
In short: as §1

P12-Ichikawa [3] = assay: cell viability relative to DMSO control; higher = less cytotoxic
In short: (§2)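 Library compounds in DMSO were pin-dosed in an 11-point threefold series (47 μM to 0.79 nM) onto leukemia cells in 1536-well plates (5 μl). Plates held 500 cells/well of NOMO1 or SEM or 1000 cells/well of P12-Ichikawa, each adapted for at least four passages in each medium. Luminescence was read with CellTiter-Glo One after 48 h at 37°C. Viability means the per-plate percentage relative to DMSO wells, using cell-free wells as background.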

NOMO1 [4] = assay: as above
In short: as §2

SEM cells [5] = assay: as above
In short: as §2

SEM cells [6] = assay: AUC of viability dose-response curve (% viability x log10 dose units); higher = less sensitive
In short: as §1

CCC\C1=C\C(=O)NC(=S)N1
AUC of viability dose-response curve
Conditions	HPLM + 10% dialyzed FBS	RPMI 5 mM glucose + 10% FBS	RPMI 5 mM glucose + 10% dialyzed FBS
NOMO1 [2]	407	421	452
P12-Ichikawa [1]	413	399	425

cell viability [%]
Conditions	NOMO1 [4]	P12-Ichikawa [3]	SEM cells [5]
HPLM + 10% dialyzed FBS, 0.000781 µM	81.7	99.4	71.1
HPLM + 10% dialyzed FBS, 0.00234 µM	104	107	74.2
HPLM + 10% dialyzed FBS, 0.00702 µM	112	109	98.3
HPLM + 10% dialyzed FBS, 0.0211 µM	131	111	30.6
HPLM + 10% dialyzed FBS, 0.0632 µM	113	120	119
HPLM + 10% dialyzed FBS, 0.19 µM	126	120	91.1
HPLM + 10% dialyzed FBS, 0.569 µM	121	94.2	7.27
HPLM + 10% dialyzed FBS, 1.71 µM	133	110	27.9
HPLM + 10% dialyzed FBS, 5.12 µM	72.3	87.6	79.2
HPLM + 10% dialyzed FBS, 15.4 µM	35	38.4	51.5
HPLM + 10% dialyzed FBS, 46.1 µM	25.8	8.65	75.9
RPMI 5 mM glucose + 10% FBS, 0.000781 µM	101	107	63.3
RPMI 5 mM glucose + 10% FBS, 0.00234 µM	113	112	91.9
RPMI 5 mM glucose + 10% FBS, 0.00702 µM	123	110	102
RPMI 5 mM glucose + 10% FBS, 0.0211 µM	123	118	28
RPMI 5 mM glucose + 10% FBS, 0.0632 µM	114	119	121
RPMI 5 mM glucose + 10% FBS, 0.19 µM	109	112	124
RPMI 5 mM glucose + 10% FBS, 0.569 µM	116	85	6.88
RPMI 5 mM glucose + 10% FBS, 1.71 µM	119	104	22.9
RPMI 5 mM glucose + 10% FBS, 5.12 µM	111	78.9	93.1
RPMI 5 mM glucose + 10% FBS, 15.4 µM	29.4	40.8	52.2
RPMI 5 mM glucose + 10% FBS, 46.1 µM	20.9	7.58	65
RPMI 5 mM glucose + 10% dialyzed FBS, 0.000781 µM	103	102	69.2
RPMI 5 mM glucose + 10% dialyzed FBS, 0.00234 µM	122	105	74.8
RPMI 5 mM glucose + 10% dialyzed FBS, 0.00702 µM	115	103	91.7
RPMI 5 mM glucose + 10% dialyzed FBS, 0.0211 µM	118	115	54.4
RPMI 5 mM glucose + 10% dialyzed FBS, 0.0632 µM	109	118	89.8
RPMI 5 mM glucose + 10% dialyzed FBS, 0.19 µM	109	119	125
RPMI 5 mM glucose + 10% dialyzed FBS, 0.569 µM	113	99.7	6.6
RPMI 5 mM glucose + 10% dialyzed FBS, 1.71 µM	123	113	20.3
RPMI 5 mM glucose + 10% dialyzed FBS, 5.12 µM	99.7	83.9	92.4
RPMI 5 mM glucose + 10% dialyzed FBS, 15.4 µM	100	68.3	43.1
RPMI 5 mM glucose + 10% dialyzed FBS, 46.1 µM	31.7	9.42	50.8

CC(=O)Nc1ccc(O)cc1
AUC of viability dose-response curve
Conditions	NOMO1 [2]	P12-Ichikawa [1]	SEM cells [6]
HPLM + 10% dialyzed FBS	464	455	472
RPMI 5 mM glucose + 10% FBS	459	458	476
RPMI 5 mM glucose + 10% dialyzed FBS	463	470	467

CC(=O)NCCC(=O)N[C@@H](CCC(N)=O)C(=O)N[C@@H](CO)C(=O)N[C@@H](CCC(N)=O)C(=O)N[C@@H](CCC(N)=O)C(=O)N[C@H](C(=O)N[C@@H](Cc1ccccc1)C(=O)N[C@]1(C)CCCCCC/C=C\CCC[C@@](C)(C(=O)N[C@@H](CCC(N)=O)C(=O)N[C@@H](CC(N)=O)C(N)=O)NC(=O)[C@H](CC(C)C)NC(=O)[C@H](CC(C)C)NC(=O)[C@@H](CCCNC(=N)N)NC(=O)[C@H](Cc2c[nH]c3ccccc23)NC(=O)[C@H](CC(C)C)NC(=O)[C@H](CC(N)=O)NC1=O)[C@H](C)O
AUC of viability dose-response curve
Conditions	NOMO1 [2]	P12-Ichikawa [1]	SEM cells [6]
HPLM + 10% dialyzed FBS	456	461	376
RPMI 5 mM glucose + 10% FBS	451	460	321
RPMI 5 mM glucose + 10% dialyzed FBS	426	437	346

CC(C)(C)c1cnc(CSc2cnc(NC(=O)C3CCNCC3)s2)o1
AUC of viability dose-response curve
Conditions	NOMO1 [2]	P12-Ichikawa [1]	SEM cells [6]
HPLM + 10% dialyzed FBS	289	250	297
RPMI 5 mM glucose + 10% FBS	321	321	309
RPMI 5 mM glucose + 10% dialyzed FBS	312	330	311

O=C(Cc1ccc(-c2ccc(OCCN3CCOCC3)cc2)cn1)NCc1ccccc1
AUC of viability dose-response curve
Conditions	HPLM + 10% dialyzed FBS	RPMI 5 mM glucose + 10% FBS	RPMI 5 mM glucose + 10% dialyzed FBS
NOMO1 [2]	294	263	277
P12-Ichikawa [1]	200	205	222

cell viability [%]
Conditions	NOMO1 [4]	P12-Ichikawa [3]	SEM cells [5]
HPLM + 10% dialyzed FBS, 0.000781 µM	118	107	96
HPLM + 10% dialyzed FBS, 0.00234 µM	102	113	95.9
HPLM + 10% dialyzed FBS, 0.00702 µM	123	114	106
HPLM + 10% dialyzed FBS, 0.0211 µM	111	85.6	67.9
HPLM + 10% dialyzed FBS, 0.0632 µM	43.7	36.1	28.9
HPLM + 10% dialyzed FBS, 0.19 µM	41.9	17.3	22.9
HPLM + 10% dialyzed FBS, 0.569 µM	43.8	14	21.6
HPLM + 10% dialyzed FBS, 1.71 µM	53.7	13.2	20.8
HPLM + 10% dialyzed FBS, 5.12 µM	52.5	10.3	18.9
HPLM + 10% dialyzed FBS, 15.4 µM	56.6	9.64	15.2
HPLM + 10% dialyzed FBS, 46.1 µM	40.6	11.6	10.5
RPMI 5 mM glucose + 10% FBS, 0.000781 µM	124	114	79.9
RPMI 5 mM glucose + 10% FBS, 0.00234 µM	122	114	84.5
RPMI 5 mM glucose + 10% FBS, 0.00702 µM	117	123	87
RPMI 5 mM glucose + 10% FBS, 0.0211 µM	128	97	57.9
RPMI 5 mM glucose + 10% FBS, 0.0632 µM	71.9	40	18.9
RPMI 5 mM glucose + 10% FBS, 0.19 µM	27.1	25.9	12.9
RPMI 5 mM glucose + 10% FBS, 0.569 µM	33.2	15.6	14.8
RPMI 5 mM glucose + 10% FBS, 1.71 µM	34.1	15.1	13.6
RPMI 5 mM glucose + 10% FBS, 5.12 µM	32.5	10.4	12.2
RPMI 5 mM glucose + 10% FBS, 15.4 µM	31.3	8.04	4.65
RPMI 5 mM glucose + 10% FBS, 46.1 µM	33.7	8.38	2.89
RPMI 5 mM glucose + 10% dialyzed FBS, 0.000781 µM	118	122	93.6
RPMI 5 mM glucose + 10% dialyzed FBS, 0.00234 µM	108	118	90.8
RPMI 5 mM glucose + 10% dialyzed FBS, 0.00702 µM	124	119	93.8
RPMI 5 mM glucose + 10% dialyzed FBS, 0.0211 µM	112	112	70.8
RPMI 5 mM glucose + 10% dialyzed FBS, 0.0632 µM	62.5	33.3	30.3
RPMI 5 mM glucose + 10% dialyzed FBS, 0.19 µM	35.8	35	19.1
RPMI 5 mM glucose + 10% dialyzed FBS, 0.569 µM	35.2	22.9	22.4
RPMI 5 mM glucose + 10% dialyzed FBS, 1.71 µM	41.7	22.2	20
RPMI 5 mM glucose + 10% dialyzed FBS, 5.12 µM	40.6	13.6	17.3
RPMI 5 mM glucose + 10% dialyzed FBS, 15.4 µM	33.4	11.6	9.97
RPMI 5 mM glucose + 10% dialyzed FBS, 46.1 µM	42.7	16.6	7.04

C[C@H]1CC2C3CCC/4=C/C(=O)/C=C\[C@]4(C)[C@@]3(F)[C@@H](O)C[C@]2(C)[C@@]1(O)C(=O)CO (stereo partly specified)
AUC of viability dose-response curve
Conditions	NOMO1 [2]	P12-Ichikawa [1]	SEM cells [6]
HPLM + 10% dialyzed FBS	420	374	372
RPMI 5 mM glucose + 10% FBS	450	342	356
RPMI 5 mM glucose + 10% dialyzed FBS	466	330	348
